Experiments:
Format in all cases: in vivo, cd1 nu/nu mice (human GBM cell line)
[1] = test system: U87MG glioblastoma CDX; assay: Subcutaneous U87MG glioblastoma CDX: tumor weight and time of tumor progression; conditions: for tumor weight [%]: relative to vehicle = 100
Experimental: Effects of KcAng(1-7) were evaluated in vivo in a subcutaneous GBM xenograft model in nude mice. Insurgence of neurologic phenomena and differences in the survival rates were evaluated. Human GBM cell lines U87MG and U251MG were used. Cell lines were grown in DMEM nutrient mixture supplemented with 10% fetal bovine serum, 1% penicillin/streptomycin, and 25 mM HEPES buffer. All cell lines were cultured at 37° C. in a humidified atmosphere consisting of 5% CO2 and 95% air. Medium was changed every 2 days and the cell morphology was evaluated under microscope daily.
Six-week-old male athymic nude mice (age 5-7 weeks) were housed with free access to food and water in a temperature-controlled room. Each group is represented by 10 xenograft cd1 nu/nu mice. The mice were injected s.c. in the right distal hind limb with one million of cultured human tumor cell lines suspended in 0.15 mL of 2:1 solution of PBS/Matrigel (Matrigel BD Biosciences). Xenografts were measured every four days with a digital caliper in two perpendicular dimensions. Tumor volume was calculated according to the following formula:
Tumor volume=(tumor width)×(tumor width)×(tumor length)÷2
At the end of experiments, mice were euthanized and tumors removed. Weight loss or other signs of distress such as hunched posture were checked during and after treatments.
Efficacy of treatment was evaluated by: (1) the size of tumors (vehicle control and treated), (2) the relative weight at the end of experiment, and (3) the indirect evaluation of angiogenesis by determining hemoglobin levels.
In vivo tumor response to treatment was evaluated using the following parameters: (i) Complete response (CR): defined as the disappearance of a measurable lesion, (ii) Partial response (PR): defined as a reduction of greater than 50% of the sum of the products of the cross-sectional diameters of the measurable lesion, (iii) Stable disease (SD): defined as a reduction of less than 50% or an increase of less than 25% in the sum of the products of the cross-sectional diameters of the measurable lesions, (iv) Tumor progression (TP): defined as an increase of greater than […] in the sum of the products of the cross-sectional diameters of the measured lesion, (v) Time to progression (TTP) defining the tumor growth delay. Tumor progression was calculated through the analysis of bioluminescence imaging (BLI) photon counts and when possible through the analyses of tumor volumes calculated by magnetic resonance imaging (MRI), (vi) Disease free survival (DFS) is the time elapsed between the time point at which no luciferase activity is detectable anymore and the death of the animal, (vii) Overall survival (OS) is the time elapsed between tumor inoculation and death of the animal. […] Luciferase transfected cells were used for bioluminescence evaluations.
Data are presented as mean and standard error of the mean (SEM) or standard deviation (SD). Statistical comparisons between control and treated groups were established by carrying out the Kruskal-Wallis test (a nonparametric one-way analysis of variance) or the Mann-Whitney test (in the case of two groups). The level of significance was corrected by multiplying the P value by the number of comparisons performed (n) according to […] correction. TP, TTP and DFS were analyzed by Kaplan-Meier curves and Gehan's generalized Wilcoxon test. All statistical analyses were undertaken using SPSS 10.0.
Mice with U87MG cell CDX were randomized at day 0. KcAng(1-7) was injected daily subcutaneously (0.2 μg/kg) starting at day 0 until the (ethical) endpoint maximally at day 42. TMZ was administered at 16 mg/kg during 5 consecutive days, that is from […]. Volumetric evaluation of the tumor was performed every 4 days and tumor weight was measured at the end of the experiment.
Synergism was determined using the methods described in Clarke et al. Breast Cancer Research and Treatment 46:255-278 (1997).
Mice with U87MG cell CDX were randomized at day 0. […]

[2] = test system: U251MG glioblastoma CDX; assay: Tumor hemoglobin level (indirect angiogenesis) in U251MG CDX; conditions: KcAng(1-7) 1 μg/kg/d, Losartan 20 mg/kg/d, or both
Experimental: Efficacy of treatment was evaluated by: […] In brief, tumors were homogenized in double-distilled water. Eighty microliters of homogenates were mixed with 1 mL of Drabkin's solution and incubated for 15 min at room temperature. After centrifugation at 400×g for 5 min, the supernatants were subjected to absorbance measurement at 540 nm. The absorption, which is proportional to hemoglobin concentration, was divided by tumor weight. Effect of KcAng(1-7) and Losartan against heterotopic U251MG cell culture-based xenografts (CDX) in mice. Animals were treated either with vehicle, treated with 20 mg/kg/d Losartan, treated with 1 μ[…](1-7) or treated with a combination of KcAng(1-7) and with Losartan.

[3] = test system: U87MG glioblastoma CDX; assay: Tumor hemoglobin level (indirect angiogenesis) in U87MG CDX; conditions: KcAng(1-7) 1 μg/kg/d, Losartan 20 mg/kg/d, or both
Experimental: Efficacy of treatment was evaluated by: […] Mice with U87MG cell CDX were randomized at day 0. KcAng(1-7) was injected subcutaneously (1 μg/kg) on a daily basis. Losartan was administered intraperitoneal at 20 mg/kg/day. […] In brief, tumors were homogenized in double-distilled water. Eighty microliters of homogenates were mixed with 1 mL of Drabkin's solution and incubated for 15 min at room temperature. After centrifugation at 400×g for 5 min, the supernatants were subjected to absorbance measurement at 540 nm. The absorption, which is proportional to hemoglobin concentration, was divided by tumor weight.

[4] = test system: U251MG glioblastoma CDX; assay: Subcutaneous U251MG glioblastoma CDX: time of tumor progression; conditions: KcAng(1-7) 1 μg/kg/d, Losartan 20 mg/kg/d, or both
Experimental: Effects of KcAng(1-7) were evaluated in vivo in a subcutaneous GBM xenograft model in nude mice. Insurgence of neurologic phenomena and differences in the survival rates were evaluated. Human GBM cell lines U87MG and U251MG were used. Cell lines were grown in DMEM nutrient mixture supplemented with 10% fetal bovine serum, 1% penicillin/streptomycin, and 25 mM HEPES buffer. All cell lines were cultured at 37° C. in a humidified atmosphere consisting of 5% CO2 and 95% air. Medium was changed every 2 days and the cell morphology was evaluated under microscope daily. Six-week-old male athymic nude mice (age 5-7 weeks) were housed with free access to food and water in a temperature-controlled room. Each group is represented by 10 xenograft cd1 nu/nu mice. […] Xenografts were measured every four days with a digital caliper in two perpendicular dimensions. Tumor volume was calculated according to the following formula: In vivo tumor response to treatment was evaluated using the following parameters: […] […] TP, TTP and DFS were analyzed by Kaplan-Meier curves and Gehan's generalized Wilcoxon test. […]

Structure (SMILES) | Time of tumor progression - TTP, mean (days ± SD) ([1]; KcAng(1-7) 0.2 μg/kg/d s.c., TMZ 16 mg/kg for 5 days, or both) [days] | Tumor weight, mean (mg ± SD) ([1]; end of experiment, KcAng(1-7) 0.2 μg/kg/d s.c., TMZ 16 mg/kg for 5 days, or both) [mg] | tumor weight [%] ([1]; KcAng(1-7) 0.2 μg/kg/d, TMZ 16 mg/kg, or both) | Tumor hemoglobin level, mean (± SEM) [2] | Tumor hemoglobin level, mean (± SEM) [3] | Time of tumor progression - TTP, mean (days ± SEM) [4] [days] | Time of tumor progression - TTP, mean (days ± SEM) ([1]; KcAng(1-7) 1 μg/kg/d s.c., Losartan 20 mg/kg/d i.p., or both) [days] | Tumor weight, mean (mg ± SEM) ([1]; KcAng(1-7) 1 μg/kg/d s.c., Losartan 20 mg/kg/day i.p., or both) [mg] | tumor weight [%] ([1]; KcAng(1-7) 1 μg/kg/d, Losartan 20 mg/kg/d, or both)
Cn1nnc2c(C(N)=O)ncn2c1=O [Temozolomide, temozolomide, reference compound] | 17.00 ± 0.54 | 445 ± 28 | 42.8 |  |  |  |  |  | 
CCCCc1nc(Cl)c(CO)n1Cc1ccc(-c2ccccc2-c2nn[nH]n2)cc1 [Losartan, reference compound] |  |  |  | 32.1 ± 3.1 mg Hb/g of tissue | 15.2 ± 1.0 mg hemoglobin/g of tissue | 10.6 ± 0.6 | 13.0 ± 0.6 | 830 ± 57 | 79.8
